What is called AC50 is the midpoint of the concentration-response curve, whichever way the signal moves.

13 compounds from patent publication US11649242B2, “Pyrrolopyrrole compositions as pyruvate kinase (PKR) activators” (FORMA Therapeutics, Inc., priority 2017, dated 2023) can be followed below.

Holding throughout (type): biochemical
The target of one test is PKR(wt) (Homo sapiens, UniProt P30613). Briefly: Luminescence Assay Protocol (Kinase Glo Plus), PKR(Wt/without FBP). The conditions noted are these: without FBP; for activation at 1.54 µM: compound 1.54 μM, read-out: I - AC50 LUM KGP woFBP % Fold @ 1.54 μM mean; for AC50: gmean, read-out: G - AC50 LUM KGP woFBP AC50 μM gmean; for Emax: highest % fold increase at any concentration, read-out: H - AC50 LUM KGP woFBP MAX % FOLD mean. As for the experimental part: (§1) Example 47: PKR(Wt/without FBP), PKR(G332S/with FBP), PKR(R510Q/without FBP)
(§2) The phosphorylation of Adenosine-5′-diphosphate (ADP) by various mutants of PKR was determined by the Kinase Glo Plus Assay (Promega) in the presence or absence of FBP [D-Fructose-1,6-diphosphate; BOC Sciences, CAS: 81028-91-3] as follows. Unless otherwise indicated, all reagents were purchased from Sigma-Aldrich. All reagents were prepared in buffer containing 50 mM Tris-HCl, 100 mM KCl, 5 mM MgCl2, and 0.01% Triton X100, 0.03% BSA, and 1 mM DTT. Enzyme and PEP [Phospho(enol) pyruvic acid] were added at 2× to all wells of an assay-ready plate containing serial dilutions of test compounds or DMSO vehicle. Final enzyme concentrations for PKR(wt), PKR(R510Q), and PKR(G332S) were 0.8 nM, 0.8 nM, and 10 nM respectively. Final PEP concentration was 100 μM. The Enzyme/PEP mixture was incubated with compounds for 30 minutes at RT before the assay was initiated with the addition of 2×ADP [Adenosine-5′-diphosphate] and KinaseGloPlus. Final concentration of ADP was 100 μM. […] For assays containing FBP, that reagent is added at 30 μM upon reaction initiation. Reactions were allowed to progress for 45 minutes at RT until luminescence was recorded by the BMG PHERAstar FS Multilabel Reader. All compounds were tested in triplicate at concentrations ranging from 42.5 μM to 2.2 nM in 0.83% DMSO.
(§3) Luminescence values were converted to % Fold increase by normalizing to the average of the DMSO control and multiplying by 100. Max, min, slope and AC50 were determined by the standard four parameter fit algorithm of ActivityBase XE Runner. Compounds were evaluated with three parameters—AC50, MAX % Fold, and % Fold@1.54 μM (FIG. 1). The AC50 value for a compound is the concentration […] corresponding to the midway between the maximum and minimum values of the four parameter logistic curve fit (i.e., at which the % fold increase along the four parameter logistic curve fit is halfway between MAX % Fold and MIN % Fold (% Fold Midpoint)), MAX % Fold is the highest fold increase observed at any concentration of compound, and % Fold@1.54 μM is the fold increase at a compound concentration of 1.54 μM. The parameter % Fold@1.54 μM was selected to capture elements of both the AC50 and MAX % Fold and to provide a ranking based on both potency and effect. The compound concentration of 1.54 μM was chosen as one that can optimally differentiate the set of compounds based on the range of activities observed.
(§4) As set forth in Tables 6 and 7 below, AC50 values (columns A, D, G) are defined as follows: ≤0.1 μM (+++); >0.1 μM and ≤1.0 μM (++); >1.0 μM and ≤40 μM (+); >40 μM (0). Max % FOLD values (columns B, E, H) are defined as follows: ≤75% (+); >75% and ≤250% (++); >250% and ≤500% (+++). % Fold@1.54 μM values (columns C, F, I) are defined as follows: ≤75% (+); >75% and ≤250% (++); >250% and ≤500% (+++).

The next test has as its target PKR(G332S) (Homo sapiens, UniProt P30613, G332S). The test is described as follows: Luminescence Assay Protocol (Kinase Glo Plus), PKR(G332S/with FBP). The settings on record: PKRG332S, with FBP; for activation at 1.54 µM: compound 1.54 μM, read-out: C - AC50 LUM KGP FBP % Fold @ 1.54 μM mean; for AC50: gmean, read-out: A - AC50 LUM KGP FBP AC50 μM gmean; for Emax: highest % fold increase at any concentration, read-out: B - AC50 LUM KGP FBP MAX % FOLD mean. The protocol:
as §1, §2, §3, §4
Background: Kinase-Glo measures the ATP left after a reaction by luminescence.

In another test the target is PKR(R510Q) (Homo sapiens, UniProt P30613, R510Q). The test is described as follows: Luminescence Assay Protocol (Kinase Glo Plus), PKR(R510Q/without FBP). The settings on record: PKRR510Q, without FBP; for activation at 1.54 µM: compound 1.54 μM, read-out: F - AC50 LUM KGP woFBP % Fold @ 1.54 μM mean; for AC50: gmean, read-out: D - AC50 LUM KGP woFBP AC50 μM gmean; for Emax: read-out: E - AC50 LUM KGP woFBP MAX % FOLD mean. As for the experimental part: as §1, §2, §3, §4

Where [1] appears, read: highest % fold increase at any concentration.

SMILES strings stand for the structures.

Sequence of PKR(R510Q) (P30613 whole entry R510Q): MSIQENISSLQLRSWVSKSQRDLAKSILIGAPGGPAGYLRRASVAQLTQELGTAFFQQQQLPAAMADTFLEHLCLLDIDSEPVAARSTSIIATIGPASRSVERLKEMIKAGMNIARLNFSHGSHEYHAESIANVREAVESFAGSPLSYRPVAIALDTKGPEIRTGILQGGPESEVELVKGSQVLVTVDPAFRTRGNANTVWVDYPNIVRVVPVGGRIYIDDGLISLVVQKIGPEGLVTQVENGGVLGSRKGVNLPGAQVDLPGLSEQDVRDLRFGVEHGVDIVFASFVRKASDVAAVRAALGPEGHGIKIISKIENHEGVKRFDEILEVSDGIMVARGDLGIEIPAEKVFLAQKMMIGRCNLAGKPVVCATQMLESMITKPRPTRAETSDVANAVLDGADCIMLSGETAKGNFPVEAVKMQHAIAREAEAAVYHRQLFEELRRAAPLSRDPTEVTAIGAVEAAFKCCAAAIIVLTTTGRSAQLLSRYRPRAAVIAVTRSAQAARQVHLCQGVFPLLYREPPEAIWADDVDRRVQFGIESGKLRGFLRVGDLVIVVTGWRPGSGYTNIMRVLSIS
Sequence of PKR(G332S) (P30613 whole entry G332S): as the sequence (P30613 whole entry R510Q) above, with G332S, Q510R counted along it
Sequence of PKR(wt) (P30613 whole entry): as the sequence (P30613 whole entry R510Q) above, with Q510R counted along it

On to `C[C@@H](O)[C@@H](C(=O)N1CC2=C(C1)CN(S(=O)(=O)c1ccc(OC(F)F)cc1)C2)c1ccccc1` (racemic) [Example 26, (2S,3R and 2R,3S)-1-(5-((4-(difluoromethoxy)phenyl)sulfonyl)-3,4,5,6-tetrahydropyrrolo[3,4-c]pyrrol-2(1H)-yl)-3-hydroxy-2-phenylbutan-1-one], for which the activation at 1.54 µM at PKR(wt) was in the range of 250 to 500%; on PKR(G332S), 75 to 250%; at PKR(R510Q), 250 to 500%. The AC50 at PKR(wt), on PKR(G332S) and at PKR(R510Q) was no more than 0.1 µM each time. Also, the Emax at PKR(wt) lay in the range of 250 to 500%; on PKR(G332S), 75 to 250%; on PKR(R510Q) (setting [1]), 250 to 500%.

In the case of `C[C@@H](O)[C@H](C(=O)N1CC2=C(C1)CN(S(=O)(=O)c1ccc(OC(F)F)cc1)C2)c1ccccc1` (racemic) [Example 27, (2R,3R and 2S,3S)-1-(5-((4-(difluoromethoxy)phenyl)sulfonyl)-3,4,5,6-tetrahydropyrrolo[3,4-c]pyrrol-2(1H)-yl)-3-hydroxy-2-phenylbutan-1-one], the activation at 1.54 µM is 250 to 500% on PKR(wt), 75 to 250% on PKR(G332S) and 250 to 500% at PKR(R510Q). For the same compound, the values for the half-maximal activity concentration (AC50) at PKR(wt), at PKR(G332S) and at PKR(R510Q) were no more than 0.1 µM, no more than 0.1 µM and 0.1 to 1 µM, respectively. Further, the figures for the Emax on PKR(wt), on PKR(G332S) and on PKR(R510Q) (setting [1]) were 250 to 500%, 75 to 250% and 250 to 500%, respectively.

Take `O=C([C@H](CO)c1ccccc1)N1CC2=C(C1)CN(S(=O)(=O)c1cnc3c(c1)OCCO3)C2` (single isomer, unassigned) [Example 1]: the activation at 1.54 µM is 75 to 250% on PKR(wt), 75 to 250% on PKR(G332S) and 250 to 500% on PKR(R510Q). The Emax fell in the range of 75 to 250% on PKR(wt), 75 to 250% at PKR(G332S) and 250 to 500% on PKR(R510Q) (setting [1]).

In the case of `O=C(C(CO)c1ccccn1)N1CC2=C(C1)CN(S(=O)(=O)c1cnc3c(c1)OCCO3)C2` (single isomer, unassigned) [Example 4, (S or R)-1-(5-((2,3-dihydro-[1,4]dioxino[2,3-b]pyridin-7-yl)sulfonyl)-3,4,5,6-tetrahydropyrrolo[3,4-c]pyrrol-2(1H)-yl)-3-hydroxy-2-(pyridin-2-yl)propan-1-one], on PKR(wt), the activation at 1.54 µM was in the range of 75 to 250%, the AC50 is 1 to 40 µM and the Emax fell in the range of 75 to 250%. Further, at PKR(R510Q), the activation at 1.54 µM was 75 to 250% and the AC50 lay in the range of 1 to 40 µM. Also, the “E - AC50 LUM KGP woFBP MAX % FOLD mean” value at PKR(R510Q) (setting [1]) was “++ (>75% and ≤250% (++))”.

Regarding `O=C(C(CO)c1ccccn1)N1CC2=C(C1)CN(S(=O)(=O)c1ccc(OC(F)F)cc1)C2` (single isomer, unassigned) [Example 42, (R or S)-1-(5-((4-(difluoromethoxy)phenyl)sulfonyl)-3,4,5,6-tetrahydropyrrolo[3,4-c]pyrrol-2(1H)-yl)-3-hydroxy-2-(pyridin-2-yl)propan-1-one], on PKR(G332S), the AC50 was no more than 0.1 µM.

With `O=C(C(CO)c1ccccc1)N1CC2=C(C1)CN(S(=O)(=O)c1ccc3c(c1)OCCO3)C2` (stereo not shown) [Example 18, 1-(5-((2,3-dihydrobenzo[b][1,4]dioxin-6-yl)sulfonyl)-3,4,5,6-tetrahydropyrrolo[3,4-c]pyrrol-2(1H)-yl)-3-hydroxy-2-phenylpropan-1-one], the activation at 1.54 µM on PKR(G332S) and at PKR(R510Q) was 75 to 250% throughout. Besides, the values for the AC50 on PKR(G332S) and on PKR(R510Q) were greater than 40 µM and no more than 0.1 µM, respectively. In addition, the Emax on PKR(G332S) and at PKR(R510Q) (setting [1]) was 75 to 250% throughout.

For `C[C@H](O)CC(=O)N1CC2=C(C1)CN(S(=O)(=O)c1ccc3occc3c1)C2` [Example 24, (S)-1-(5-(benzofuran-5-ylsulfonyl)-3,4,5,6-tetrahydropyrrolo[3,4-c]pyrrol-2(1H)-yl)-3-hydroxybutan-1-one], at PKR(wt), the activation at 1.54 µM was in the range of 75 to 250%, the AC50 fell in the range of 0.1 to 1 µM and the Emax is 250 to 500%.

`CC(C)(O)CC(=O)N1CC2=C(C1)CN(S(=O)(=O)c1ccc3occc3c1)C2` [Example 25, 1-(5-(benzofuran-5-ylsulfonyl)-3,4,5,6-tetrahydropyrrolo[3,4-c]pyrrol-2(1H)-yl)-3-hydroxy-3-methylbutan-1-one]: on PKR(wt), the activation at 1.54 µM lay within 75 to 250%, the AC50 is 0.1 to 1 µM and the Emax is 250 to 500%.

Turning to `COc1ccc(S(=O)(=O)N2CC3=C(CN(C(=O)CCO)C3)C2)cc1` [Example 40, 3-hydroxy-1-(5-((4-methoxyphenyl)sulfonyl)-3,4,5,6-tetrahydropyrrolo[3,4-c]pyrrol-2(1H)-yl)propan-1-one], at PKR(R510Q), the activation at 1.54 µM lay within 75 to 250% and the AC50 is 1 to 40 µM. The Emax at PKR(R510Q) (setting [1]) lay in the range of 250 to 500%.

On to `O=C(CCO)N1CC2=C(C1)CN(S(=O)(=O)c1ccc(OC(F)F)cc1)C2` [Example 54, 1-(5-((4-(difluoromethoxy)phenyl)sulfonyl)-3,4,5,6-tetrahydropyrrolo[3,4-c]pyrrol-2(1H)-yl)-3-hydroxypropan-1-one], for which, on PKR(wt), the activation at 1.54 µM fell in the range of 75 to 250%, the AC50 fell in the range of 1 to 40 µM and the Emax lay within 250 to 500%. For the same compound, at PKR(R510Q), the activation at 1.54 µM lay in the range of 75 to 250% and the AC50 lay in the range of 1 to 40 µM. The Emax on PKR(R510Q) (setting [1]) lay in the range of 250 to 500%.

As to `O=C(C1COCCN1)N1CC2=C(C1)CN(S(=O)(=O)c1ccc3ncsc3c1)C2` (stereo not shown) [Example 56, (5-(benzo[d]thiazol-6-ylsulfonyl)-3,4,5,6-tetrahydropyrrolo[3,4-c]pyrrol-2(1H)-yl)(morpholin-3-yl)methanone], on PKR(G332S), the activation at 1.54 µM lay within 75 to 250%, the half-maximal activity concentration (AC50) was greater than 40 µM and the Emax fell in the range of 75 to 250%. For the same compound, on PKR(R510Q), the activation at 1.54 µM lay in the range of 75 to 250% and the AC50 lay within 1 to 40 µM. For the same compound, the Emax at PKR(R510Q) (setting [1]) was 75 to 250%.

With `COCCC(=O)N1CC2=C(C1)CN(S(=O)(=O)c1ccc3c(c1)OCCO3)C2` [Example 57, 1-(5-((2,3-dihydrobenzo[b][1,4]dioxin-6-yl)sulfonyl)-3,4,5,6-tetrahydropyrrolo[3,4-c]pyrrol-2(1H)-yl)-3-methoxypropan-1-one], at PKR(G332S), the activation at 1.54 µM was 75 to 250%, the AC50 is no more than 0.1 µM and the Emax lay within 75 to 250%. In addition, at PKR(R510Q), the activation at 1.54 µM was 75 to 250% and the half-maximal activity concentration (AC50) lay in the range of 0.1 to 1 µM. In addition, the Emax at PKR(R510Q) (setting [1]) lay in the range of 75 to 250%.

Turning to `COCCC(=O)N1CC2=C(C1)CN(S(=O)(=O)c1ccc3occc3c1)C2` [Example 58, 1-(5-(benzofuran-5-ylsulfonyl)-3,4,5,6-tetrahydropyrrolo[3,4-c]pyrrol-2(1H)-yl)-3-methoxypropan-1-one], on PKR(G332S), the activation at 1.54 µM lay within 75 to 250%, the AC50 was no more than 0.1 µM and the Emax was in the range of 75 to 250%. Further, at PKR(R510Q), the activation at 1.54 µM is 75 to 250% and the AC50 is 0.1 to 1 µM. Besides, the Emax on PKR(R510Q) (setting [1]) lay in the range of 250 to 500%.
